Our source for the Ki values is patent publication US7250442B2, “Dihydroindol-2-one derivatives as steroid hormone nuclear receptor modulators” (Eli Lilly and Company, priority 2003, dated 2007).

In the experiment the target is T1, glucocorticoid receptor (Homo sapiens, UniProt P04150).
T1 construct: host or cells: A549 human lung epithelial cells (sonicated cell extract)
T1 sequence (P04150 1-777): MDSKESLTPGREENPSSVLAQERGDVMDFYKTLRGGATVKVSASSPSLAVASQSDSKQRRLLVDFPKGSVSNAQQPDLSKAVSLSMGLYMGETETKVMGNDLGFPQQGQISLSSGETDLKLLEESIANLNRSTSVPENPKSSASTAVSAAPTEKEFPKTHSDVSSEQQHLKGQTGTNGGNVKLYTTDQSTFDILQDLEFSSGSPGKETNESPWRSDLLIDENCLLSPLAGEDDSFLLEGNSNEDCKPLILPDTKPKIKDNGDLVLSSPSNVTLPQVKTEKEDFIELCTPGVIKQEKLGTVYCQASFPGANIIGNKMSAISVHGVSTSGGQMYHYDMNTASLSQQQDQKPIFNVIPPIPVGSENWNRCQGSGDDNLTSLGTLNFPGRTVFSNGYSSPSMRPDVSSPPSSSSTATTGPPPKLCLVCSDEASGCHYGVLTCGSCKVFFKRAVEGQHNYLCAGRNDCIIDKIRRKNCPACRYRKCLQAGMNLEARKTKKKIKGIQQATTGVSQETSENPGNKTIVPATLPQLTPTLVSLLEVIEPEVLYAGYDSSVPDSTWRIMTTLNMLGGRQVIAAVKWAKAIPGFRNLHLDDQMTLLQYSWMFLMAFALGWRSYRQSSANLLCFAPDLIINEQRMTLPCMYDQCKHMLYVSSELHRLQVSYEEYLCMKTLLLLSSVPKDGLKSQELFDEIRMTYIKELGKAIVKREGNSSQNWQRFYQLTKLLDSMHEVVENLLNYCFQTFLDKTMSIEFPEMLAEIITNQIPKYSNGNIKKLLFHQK
As to the kind of experiment: Glucocorticoid Receptor Binding Assay ([3H]-dexamethasone displacement, A549 cell extract). As to conditions: A549 human lung epithelial cell extract, 1.86 nM [3H]-dexamethasone; read-out: GR Ki. The procedure:
Glucocorticoid Receptor Binding Assay:
A549 human lung epithelial cells (ATCC) are grown at a scale where gram quantity cell pellets are obtained. Harvested cell pellets are washed twice in cold phosphate buffered saline, centrifuged, and resuspended in cold assay binding buffer. The assay binding buffer consists of 10% glycerol, 50 mM Tris-HCl (pH7.2), 75 mM sodium chloride, 1.5 mM magnesium chloride, 1.5 mM EDTA, and 10 mM sodium molybdate. Cell suspensions were lysed via sonication, centrifuged, and the “extract” supernatant is snap frozen and stored at −80C. until needed.
GR binding assays are performed in a final volume of 140 ul containing 50-200 ug of A549 cell extract and 1.86 nM [^3H]-dexamethasone (Amersham) plus varying concentrations of test compound or vehicle. Briefly, assays are prepared at RT in 96-well Fisher 3356 plates, each well containing 100 ul of A549 cell extract, 20 ul of [^3H]-dexamethasone, and 20 ul of test compound/vehicle. Incubations are carried out at 4 degrees celsius for 16 hours. After incubation, 70 ul of 3× dextran-coated charcoal solution is added to each reaction, mixed, and incubated for 8 minutes at RT. 3×-dextran-coated charcoal solution consists of 250 ml assay binding buffer, 3.75 g Norit A charcoal (Sigma), and 1.25 g dextran T-70 (Amersham). Charcoal/unbound radioligand complexes are removed by centrifugation of the plate and 140 ul of supernatant from each well is transferred to another 96 well Optiplate (Packard Instruments). 200 ul of Microscint-20 scinillant (Packard Instruments) is added to each well and amount of receptor bound radioligand is determined using Packard Instruments TopCount instrument.
IC50 values, defined as the concentration of test compound required to decrease [^3H]-dexamethasone binding by 50%, are then determined. Ki values for each respective test compound can then be calculated by application of the Cheng-Prusoff equation as described in Cheng et al., Relationship Between The Inhibition Constant (Ki) and The Concentration of Inhibitor Which Causes 50% Inhibition (IC50) of an Enzymatic Reaction, Biochem. Pharmacol., 22: 3099-31088; (1973).
For orientation: Ki means a measure of affinity in units of concentration, obtained from inhibition or displacement. On to `Cc1cc(C2(c3cc(C)c(O)c(C)c3)C(=O)N(Cc3ccc4ccccc4n3)c3ccccc32)cc(C)c1O` [Example 97, 3,3-Bis-(4-hydroxy-3,5-dimethyl-phenyl)-1-quinolin-2-ylmethyl-1,3-dihydro-indol-2-one], for which the Ki is at most 500 nM.
As for `Cc1cc(C2(c3cc(C)c(O)c(C)c3)C(=O)N(Cc3ccccc3Cl)c3ccc(Br)cc32)cc(C)c1O` [Example 19, 5-Bromo-1-(2-chloro-benzyl)-3,3-bis-(4-hydroxy-3,5-dimethyl-phenyl)-1,3-dihydro-indol-2-one], the figure is at most 1000 nM; as for `COc1ccc(-c2nc(CN3C(=O)C(c4cc(C)c(O)c(C)c4)(c4cc(C)c(O)c(C)c4)c4cc(C)ccc43)cs2)cc1` [Example 95, 3,3-Bis-(4-hydroxy-3,5-dimethyl-phenyl)-1-[2-(4-methoxy-phenyl)-thiazol-4-ylmethyl]-5-methyl-1,3-dihydro-indol-2-one], at most 1000 nM; as for `Cc1ccccc1CN1C(=O)C(c2cc(C)c(O)c(C)c2)(c2cc(C)c(O)c(C)c2)c2cc(Br)ccc21` [Example 20, 5-Bromo-3,3-bis-(4-hydroxy-3,5-dimethyl-phenyl)-1-(2-methyl-benzyl)-1,3-dihydro-indol-2-one], at most 500 nM.
Under `COc1ccc(-c2noc(CN3C(=O)C(c4cc(C)c(O)c(C)c4)(c4cc(C)c(O)c(C)c4)c4ccccc43)n2)cc1` [Example 142, 3,3-Bis-(4-hydroxy-3,5-dimethyl-phenyl)-1-[3-(4-methoxy-phenyl)-[1,2,4]oxadiazol-5-ylmethyl]-1,3-dihydro-indol-2-one] stands at most 1000 nM; under `Cc1cc(C2(c3cc(C)c(O)c(C)c3)C(=O)N(Cc3ccc([N+](=O)[O-])o3)c3ccccc32)cc(C)c1O` [Example 73, 3,3-Bis-(4-hydroxy-3,5-dimethyl-phenyl)-1-(5-nitro-furan-2-ylmethyl)-1,3-dihydro-indol-2-one], at most 500 nM; under `Cc1cc(C2(c3cc(C)c(O)c(C)c3)C(=O)N(Cc3cccc(Br)c3)c3ccccc32)cc(C)c1O` [Example 64, 1-(3-Bromo-benzyl)-3,3-bis-(4-hydroxy-3,5-dimethyl-phenyl)-1,3-dihydro-indol-2-one], at most 500 nM.
Under `Cc1cc(C2(c3cc(C)c(O)c(C)c3)C(=O)N(Cc3ccccc3N)c3ccccc32)cc(C)c1O` [Example 119, 1-(2-Amino-benzyl)-3,3-bis-(4-hydroxy-3,5-dimethyl-phenyl)-1,3-dihydro-indol-2-one] stands at most 500 nM; under `COc1nccc(N2C(=O)C(c3cc(C)c(O)c(C)c3)(c3cc(C)c(O)c(C)c3)c3ccccc32)n1` [Example 143, 3,3-Bis-(4-hydroxy-3,5-dimethyl-phenyl)-1-(2-methoxy-pyrimidin-4-yl)-1,3-dihydro-indol-2-one], at most 500 nM; under `Cc1cc(C2(c3cc(C)c(O)c(C)c3)C(=O)N(Cc3ccccc3Br)c3ccccc32)cc(C)c1O` [Example 63, 1-(2-Bromo-benzyl)-3,3-bis-(4-hydroxy-3,5-dimethyl-phenyl)-1,3-dihydro-indol-2-one], at most 500 nM.
`C=C(C)CN1C(=O)C(c2cc(C)c(O)c(C)c2)(c2cc(C)c(O)c(C)c2)c2ccccc21` [Example 106, 3,3-Bis-(4-hydroxy-3,5-dimethyl-phenyl)-1-(2-methyl-allyl)-1,3-dihydro-indol-2-one]: the Ki was at most 500 nM.
On to `Cc1cc(C2(c3cc(C)c(O)c(C)c3)C(=O)N(Cc3cccc(F)c3F)c3ccccc32)cc(C)c1O` [Example 66, 1-(2,3-Difluoro-benzyl)-3,3-bis-(4-hydroxy-3,5-dimethyl-phenyl)-1,3-dihydro-indol-2-one], for which the Ki was at most 500 nM.
As for `Cc1cc(C2(c3cc(C)c(O)c(C)c3)C(=O)N(Cc3ccccc3)c3ccc(Br)cc32)cc(C)c1O` [Example 15, 1-Benzyl-5-bromo-3,3-bis-(4-hydroxy-3,5-dimethyl-phenyl)-1,3-dihydro-indol-2-one], the figure is at most 1000 nM.
